Legend:
[1] = tested on: stress-induced gastric ulcer; assay: Protective effect on gastric ulcer induced by restraint plus water-immersion stress in rats; format: in vivo, Male Sprague-Dawley rats; settings: for Ulcer index: mean ± S.E.
Description: 1.1 Protective efrfect on gastric ulcer induced by restraint plus water-immersion stress in rats
Male Sprague-Dawley rats weighing 250-300 g wer eused in groups of 5-24. The animals were given the compounds by the oral route after fastin overnight. Immediately, under light ether anesthesia they were placed in a restraint box and immersed in water at 20° C. for 6 to 7 hours. Then the animals were sacrificed, and their stomachs were isolated, inflated with 4 ml of 1 % formalin for 10 minutes, opened along the greater cruvature, and examined for the rpesence of agstric erosions. The longest axis of each erosion induced on the glandular section of the stomach was measured, and the sum of the lengths was defined as an ulcer index.

peptic ulcer disease [2] = settings: Vorobyev and Samsonov, Ter. Ark. 57, 52-55, 1985; cited from earlier work
[3] = tested on: ethanol-induced gastric ulcer; assay: Protective effect on ethanol-induced gastric ulcer in rats; format: in vivo, Male Sprague-Dawley rats; settings: for Ulcer index: mean ± S.E.
Description: 1.2 Protective effect on ethanol-induced gastric ulcer in rats
Male Sprague-Dawley rats weighing 250-300 g were used in groups of 5-21. After fasting overnight, the animals were given orally the compounds. Thirty minutes later they received absolute ethanol (1 ml/body) orally and were sacrificed after 60 minutes. The stomach was removed and examined for erosions. The ulcer index was obtained in the same way as under 1.1.

gastric hemorrhage = assay: Inhibitory effect on gastric hemorrhage in rats (pylorus ligation, 2-deoxy-D-glucose plus indomethacin); format: in vivo, Male Sprague-Dawley rats; settings: for Amount of hemoglobin: mean ± S.E.; for effect on gastric hemorrhage (in words): rats
Description: 1.3 Inhibitory effect on gastric hemorrhage in rats
The method of Maeda-Hagiwara and Watanabe (Eur. J. Pharmacol. 89, 243-250, 1983) was used. Male Sprague-Dawley rats weighing 250-300 g were employed in groups of 10-14. After 24 hours fasting, the pylorus was ligated under light ether anesthesia. Then, 200 mg/kg of 2-deoxy-D-glucose was administered intravenously in combination with 40 mg/kg of indomethacin suspended in 0.5 % carboxymethylcellulose by the subcutaneous route. After 1 hour the test compounds wer einjected intraperitoneally. Two hours later, the animals were exsanguinated under ether anesthesia and their stomachs were isolated. Gastric juice was collected and filtered. The amount of discharged blood was expressed as that of hemoglobin in mg per rat.

in vivo [4] = settings: mouse, mice
[5] = c.f. U.S. Pat. No. 4,289,776; cited from earlier work
peptic ulcer disease [6] = assay: Antiulcer effect, general statements; settings: in vivo
rats = assay: 3-month oral toxicity study in rats; format: in vivo; settings: 3 months
Description: Compound 2 was administered orally to rats at 150 and 50 mg/kg/day for 3 months. This study included: observation of toxic signs during the treatment; macroscopic and microscopic examinations of main organs including the brain, heart, liver, kidney, bone marrow, adrenal, and lung; and biochemical tests of the blood and urine.

[7] = Toxicity, general statements; settings: in vivo
in vivo [8] = settings: rat, rats
[9] = Table 3 (efficacy comparison), 10 mg/kg po
[10] = Table 5 (efficacy comparison), 10 mg/kg po
[11] = ip, intraperitoneal administration

| Compound | Inhibition ([1]; Table 2, 10 mg/kg po) [%] | Ulcer index ([1]; Table 2, 10 mg/kg po) [mm] | Inhibition ([1]; Table 2, 25 mg/kg po) [%] | Ulcer index ([1]; Table 2, 25 mg/kg po) [mm] | Inhibition [1, 9] [%] | Ulcer index [1, 9] [mm] | Inhibition ([3]; Table 4, 10 mg/kg po) [%] | Ulcer index ([3]; Table 4, 10 mg/kg po) [mm] | Inhibition ([3]; Table 4, 25 mg/kg po) [%] | Ulcer index ([3]; Table 4, 25 mg/kg po) [mm] | Inhibition ([3]; Table 4, 50 mg/kg po) [%] | Ulcer index ([3]; Table 4, 50 mg/kg po) [mm] | Inhibition [3, 10] [%] | Ulcer index [3, 10] [mm] | Amount of hemoglobin (gastric hemorrhage; 25 mg/kg i.p.) [mg/rat] | Amount of hemoglobin (gastric hemorrhage; 50 mg/kg i.p.) [mg/rat] | effect on gastric hemorrhage (in words) (gastric hemorrhage) | LD50 (in vivo [4]; [11]) [mg/kg] | also measured |
| --- | --- | --- | --- | --- | --- | --- | --- | --- | --- | --- | --- | --- | --- | --- | --- | --- | --- | --- | --- |
| CC(=O)CCCCn1c(=O)c2c(ncn2C)n(C)c1=O [Pentoxifylline, 1,2,3,6-tetrahydro-3,7-dimethyl-1-(5-oxohexyl)-purine-2,6-dione, reference compound] | 25.8 | 24.4 ± 4.0 | 52.0 | 15.8 ± 4.1 | 12.7 | 17.2 ± 5.6 | 50.3 | 65.8 ± 12.1 | 63.9 | 47.8 ± 15.3 | 85.9 | 18.7 ± 6.2 | 78.8 | 34.9 ± 10.9 | 19.6 ± 2.0 | 17.3 ± 2.3 | did not have a statistically significant effect |  | Inhibition ([1]; Table 2, 50 mg/kg po): 83.9%; Ulcer index ([1]; Table 2, 50 mg/kg po): 5.3 ± 1.2 mm; antiulcer effect reported in the literature (in words) (peptic ulcer disease [2]): antiulcer effects |
| CCn1cnc2c1c(=O)n(CCCCC(C)=O)c(=O)n2C [Compound 1] |  |  |  |  | 77.2 | 4.5 ± 0.9 |  |  |  |  |  |  | 84.6 | 25.3 ± 10.9 |  |  |  | 250 to 500 |  |
| CCCn1cnc2c1c(=O)n(CCCC(C)=O)c(=O)n2C [Compound 3] |  |  |  |  | 67.0 | 6.5 ± 1.6 |  |  |  |  |  |  |  |  |  |  |  | 300 to 600 |  |
| CCCn1cnc2c1c(=O)n(CCCCC(C)=O)c(=O)n2C [Compound 2, 1,2,3,6-tetrahydro-3-methyl-1-(5-oxohexyl)-7-propyl-purine-2,6-dione] | 64.3 | 13.3 ± 5.4 | 75.6 | 9.1 ± 3.1 | 56.3 | 8.6 ± 2.3 | 61.5 | 51.0 ± 13.2 | 75.4 | 32.6 ± 9.1 | 89.7 | 13.6 ± 9.3 | 86.9 | 21.6 ± 4.6 | 14.4 ± 1.4 | 12.5 ± 1.6 | inhibitory effects on gastric hemorrhage | 296 | pharmacological effects shown previously (in words) [5]: dilate cerebral blood vessels, improve cerebral energy metabolism, red blood cell deformability, and cerebral edema, and decrease blood viscosity; LD50 (in vivo [4]; intravenous injection): 168 mg/kg; LD50 (in vivo [4]; oral dosing): 900 mg/kg; antiulcer effect (in words) (peptic ulcer disease [6]): improving effects on gastric ulcer; Inhibition ([1]; Table 2, 5 mg/kg po): 39.4%; Ulcer index ([1]; Table 2, 5 mg/kg po): 22.6 ± 9.8 mm; effectiveness relative to pentoxifylline in improving stress-induced gastric ulcers ([1]; versus pentoxifylline): 2 to 3 times; toxic signs, macroscopic and microscopic organ examinations, biochemical tests of blood and urine (rats; 50 mg/kg/day): no abnormalities at either level of treatment; toxic signs, macroscopic and microscopic organ examinations, biochemical tests of blood and urine (rats; 150 mg/kg/day): no abnormalities at either level of treatment except that slight salivation occurred at 150 mg/kg/day; toxicity (in words) [7]: low toxicity; LD50 (in vivo [8]; intravenous injection): 180 mg/kg; LD50 (in vivo [8]; oral dosing): 1150 mg/kg; Amount of hemoglobin (gastric hemorrhage; 12.5 mg/kg i.p.): 27.0 ± 3.0 mg/rat |

Source: patent US4845102A, “Therapeutic agent for the treatment of peptic ulcer disease” (Hoechst Japan Limited, priority 1986, dated 1989)
